According to PMC5821110 (Cancer immunology research, 2017):

System: HLA-A2
Assay: Peptide binding affinity: stabilization of HLA-A2 on TAP-deficient T2 cells
Conditions: stabilization (normalized mean fluorescence intensity) of HLA-A2 on TAP-deficient T2 cells by test peptide relative to a non-binding peptide; six hours incubation; flow cytometry

In order of falling Observed relative binding:
1. FLQGISPKI [RF]  4.97
2. FLQGISPKA [RF-IA]  4.78
3. FLQGISPKV [RF-IV]  4.25
4. RLQGISPKL [IL]  3.89
5. RLQGISPKV [IV]  3.88
6. RLQGISPKA [IA]  3.79
7. RLQGISPKI [Nat]  3.61
8. RIQGISPKI [LI]  2.34
9. RAQGISPKI [LA]  1.31
10. RLQGISPKP [IP]  1.07

System: E.G7-OVA PD-L1^high tumors
Assay: Tumor treatment study: peptide immunization after OT-1 adoptive transfer
Assay type: in vivo, C57BL/6 mice
Conditions: tumors removed on day 40, flow cytometry; 100 µg peptide in CFA

With SIINTEKL [FT] the “Number of CD8 TILs (percent of CD45^+ cells) compared to high-affinity vaccination” value was “significantly increased”.
